pIC50: −log10 of the molar value.
Biological target: T1, Glucocorticoid receptor (Homo sapiens, UniProt P04150)
T1 sequence (P04150 whole entry): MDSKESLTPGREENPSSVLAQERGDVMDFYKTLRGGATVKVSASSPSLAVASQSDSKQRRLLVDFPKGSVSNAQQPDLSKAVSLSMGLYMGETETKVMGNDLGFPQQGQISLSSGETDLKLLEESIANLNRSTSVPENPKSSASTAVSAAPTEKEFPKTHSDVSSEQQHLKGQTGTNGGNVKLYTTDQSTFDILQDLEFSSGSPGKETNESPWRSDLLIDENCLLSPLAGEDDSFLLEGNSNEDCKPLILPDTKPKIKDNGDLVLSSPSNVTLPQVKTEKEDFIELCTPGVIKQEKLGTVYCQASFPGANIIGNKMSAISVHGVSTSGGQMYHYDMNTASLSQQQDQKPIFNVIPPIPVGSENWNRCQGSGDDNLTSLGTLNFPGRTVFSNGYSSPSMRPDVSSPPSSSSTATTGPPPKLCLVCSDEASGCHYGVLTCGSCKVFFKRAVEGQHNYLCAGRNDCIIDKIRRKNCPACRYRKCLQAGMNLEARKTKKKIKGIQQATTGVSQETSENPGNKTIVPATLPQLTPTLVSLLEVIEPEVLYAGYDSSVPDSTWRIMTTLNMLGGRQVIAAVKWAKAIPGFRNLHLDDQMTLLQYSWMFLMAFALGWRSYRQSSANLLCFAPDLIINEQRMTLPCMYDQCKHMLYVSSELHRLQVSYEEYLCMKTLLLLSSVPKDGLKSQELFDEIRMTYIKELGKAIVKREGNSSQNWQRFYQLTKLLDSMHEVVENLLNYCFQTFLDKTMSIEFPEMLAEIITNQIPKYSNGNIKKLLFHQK
Test: Binding affinity to glucocorticoid receptor by Fluorescence polarization

| pIC50 | Structure (SMILES) |
| --- | --- |
| 5.70 | COc1ccc(F)cc1C(C)(C)C[C@](O)(Cc1ccc(Cl)cc1)C(F)(F)F |
| 7.00 | COc1ccc(F)cc1C(C)(C)C[C@@](O)(Cc1ccc(Cl)cc1)C(F)(F)F |

— ChEMBL document CHEMBL1149439, “A concise asymmetric route for the synthesis of a novel class of glucocorticoid mimetics containing a trifluoromethyl-substituted alcohol” (Bioorg Med Chem Lett, 2006)
